IC50 and Ki data for 9 compounds are collected here from ChEMBL document CHEMBL1149406, “Isolation and cholinesterase-inhibition studies of sterols from Haloxylon recurvum” (Bioorg Med Chem Lett, 2006).

The target of one test is Acetylcholinesterase (Electrophorus electricus, UniProt O42275). Briefly: Inhibitory activity against AChE from electric eel.
The target in the next test is Butyrylcholinesterase (Equus caballus, UniProt Q9N1N9). Briefly: Inhibitory activity against BuChE from horse serum.
Butyrylcholinesterase, sequence (Q9N1N9 whole entry): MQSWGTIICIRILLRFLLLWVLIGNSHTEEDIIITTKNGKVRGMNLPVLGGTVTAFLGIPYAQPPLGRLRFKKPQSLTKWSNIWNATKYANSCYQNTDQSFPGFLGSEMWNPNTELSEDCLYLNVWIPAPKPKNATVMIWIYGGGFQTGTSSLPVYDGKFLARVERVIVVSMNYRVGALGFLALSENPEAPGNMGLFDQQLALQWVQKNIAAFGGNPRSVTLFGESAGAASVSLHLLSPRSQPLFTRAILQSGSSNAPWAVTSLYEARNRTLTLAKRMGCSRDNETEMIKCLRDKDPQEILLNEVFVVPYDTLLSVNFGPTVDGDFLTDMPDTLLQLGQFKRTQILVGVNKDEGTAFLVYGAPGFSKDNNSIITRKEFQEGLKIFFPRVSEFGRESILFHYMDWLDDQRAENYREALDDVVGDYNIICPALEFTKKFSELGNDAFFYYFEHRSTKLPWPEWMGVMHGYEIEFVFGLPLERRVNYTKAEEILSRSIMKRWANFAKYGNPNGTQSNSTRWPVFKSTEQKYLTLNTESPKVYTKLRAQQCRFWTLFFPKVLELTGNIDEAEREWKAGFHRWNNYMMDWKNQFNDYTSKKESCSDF

Acetylcholinesterase, sequence (O42275 whole entry): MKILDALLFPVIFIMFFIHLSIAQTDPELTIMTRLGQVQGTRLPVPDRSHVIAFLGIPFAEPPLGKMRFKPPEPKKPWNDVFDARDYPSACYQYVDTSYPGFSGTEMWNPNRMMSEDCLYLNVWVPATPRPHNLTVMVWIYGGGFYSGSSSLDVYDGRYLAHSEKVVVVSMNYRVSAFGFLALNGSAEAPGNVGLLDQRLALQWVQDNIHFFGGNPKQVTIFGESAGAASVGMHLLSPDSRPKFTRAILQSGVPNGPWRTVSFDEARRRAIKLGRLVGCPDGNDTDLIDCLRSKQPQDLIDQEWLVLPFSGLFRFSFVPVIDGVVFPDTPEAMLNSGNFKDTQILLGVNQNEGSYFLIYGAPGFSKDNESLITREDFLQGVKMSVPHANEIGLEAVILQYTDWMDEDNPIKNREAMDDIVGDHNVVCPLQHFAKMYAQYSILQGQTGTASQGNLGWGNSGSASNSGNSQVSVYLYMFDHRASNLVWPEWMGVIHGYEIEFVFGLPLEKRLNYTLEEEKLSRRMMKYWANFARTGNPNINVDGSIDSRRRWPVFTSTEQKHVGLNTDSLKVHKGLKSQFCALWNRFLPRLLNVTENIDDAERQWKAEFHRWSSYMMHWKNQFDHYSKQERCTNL

At Acetylcholinesterase, `CC[C@H](/C=C/[C@@H](C)[C@H]1CC[C@@H]2[C@]1(C)CC=C1[C@]23C=C[C@]2(C[C@@H](O)CC[C@]12C)OO3)C(C)C` displayed an IC50 of 26.4 µM and a Ki of 25.5 µM. Further, on Butyrylcholinesterase, the IC50 is 6.9 µM and the affinity corresponds to a Ki of 5 µM.

On Acetylcholinesterase, `CC[C@H](C[C@@H](O)[C@@H](C)[C@H]1CCC2C3CCC4=CC(=O)CC[C@]4(C)C3=CC[C@@]21C)C(C)C` (some centres undefined) [HALOXYSTEROL C] returned a 50% inhibitory concentration (IC50) of 1 µM and a Ki of 1.1 µM. At Butyrylcholinesterase, this compound gave an IC50 of 17.8 µM and an inhibition constant (Ki) of 18 µM.

On Acetylcholinesterase, `CC[C@H](/C=C/[C@@H](C)[C@H]1CC[C@H]2[C@@H]3C=CC4C[C@@H](O)CC[C@]4(C)C3=CC[C@]12C)C(C)C` (some centres undefined) registered an IC50 of 19.2 µM and a Ki of 20.6 µM. At Butyrylcholinesterase, this compound displayed an IC50 of 4.5 µM and an inhibition constant (Ki) of 4.6 µM.

On Acetylcholinesterase, `CC[C@H](C[C@@H](O)[C@@H](C)[C@H]1CCC2C3C=CC4=C[C@@H](O)C[C@H](O)[C@]4(C)C3CC[C@@]21C)C(C)C` (some centres undefined) [HALOXYSTEROL B] displayed an IC50 of 0.89 µM and a Ki of 0.85 µM. At Butyrylcholinesterase, this compound yielded a concentration for half-maximal inhibition (IC50) of 2.3 µM and an inhibitory constant (Ki) of 2.5 µM.

Regarding `CC[C@H](C[C@@H](O)[C@@H](C)[C@H]1CCC2C3CC=C4C[C@@H](O)C[C@H](O)[C@]4(C)C3CC[C@@]21C)C(C)C` (some centres undefined) [HALOXYSTEROL A], on Acetylcholinesterase, the half-inhibitory concentration (IC50) was 8.3 µM and the Ki stood at 7.6 µM. In addition, on Butyrylcholinesterase, half-maximal inhibition (IC50) required 4.7 µM and the Ki came to 4.5 µM.

On to `CCC(CC[C@@H](C)[C@H]1CC[C@H]2[C@@H]3C=CC4(O)C[C@@H](O)CC[C@]4(C)[C@H]3CC[C@]12C)C(C)C` (some centres undefined), for which the Ki at Acetylcholinesterase was 4 µM; at Butyrylcholinesterase, 4.2 µM.

`CC[C@H](CC[C@@H](C)[C@H]1CC[C@H]2[C@@H]3CCC4=C[C@@H](O)CC[C@]4(C)[C@H]3CC[C@]12C)C(C)C` [LAWSARITOL]: the IC50 at Acetylcholinesterase was 15.2 µM; against Butyrylcholinesterase, 3.9 µM. Besides, the values for the Ki at Acetylcholinesterase and on Butyrylcholinesterase were 16.1 µM and 3.7 µM, respectively.

Take `CCC(CC[C@@H](C)[C@H]1CC[C@H]2C3=CC(O)C4(O)C[C@@H](O)CC[C@]4(C)[C@H]3CC[C@]12C)C(C)C` (some centres undefined): at Acetylcholinesterase, half-maximal inhibition (IC50) was put at 13.7 µM and the affinity corresponds to a Ki of 12.6 µM. On Butyrylcholinesterase, this compound displayed a 50% inhibitory concentration (IC50) of 2 µM and a Ki of 2.5 µM.

On Acetylcholinesterase, `CC[C@H](C[C@@H](O)[C@@H](C)[C@H]1CC[C@H]2[C@@H]3C[C@@H](O)[C@@]4(O)C[C@@H](O)C[C@H](O)[C@]4(C)[C@H]3CC[C@]12C)C(C)C` registered an IC50 of 17.2 µM and a Ki of 17 µM. For the same compound, at Butyrylcholinesterase, the IC50 turned out to be 2.5 µM and the inhibition constant (Ki) came out at 2.2 µM.
